The conditions of data set [1]: cited from the MSDS; cited from earlier work.
The conditions of data set [2]: cited from earlier work.
The subject of the next data set is E. coli. Briefly: microbe, parasite or virus in culture. Conditions: Escherichia coli, light or radiation study, read-out: LD50 E. coli Irradiated.
Another data set relates to DNA. The data set can be described thus: DNA binding constant.
The next data set can be described thus: Water solubility. Format: physicochemical.
The nature of data set [3]: Singlet oxygen study using ADPA as singlet oxygen sensor. Format: physicochemical. As to conditions: after 15 minutes of irradiation.
A further data set concerns plasmid DNA. The data set can be described thus: Photocleavage of plasmid DNA (ethidium bromide stained agarose gel). The format is biochemical. As to conditions: irradiation with visible light (λ>395 nm); 120 μM plasmid DNA; 25 and 50 μM riboflavin; 30 min incubation, 30 min irradiation. An excerpt:
From the left: Lane 1: DNA only, dark. Lane 2: DNA only, irradiated.

Converted amounts (≈) assume the structure as drawn.

From the text for Human Skin: Toxicity of the formulations towards human skin cells is examined by previously published methods.

Regarding `CC1=C(C/C=C(\C)CCC[C@H](C)CCC[C@H](C)CCCC(C)C)C(=O)c2ccccc2C1=O` [Phylloquinone, phylloquinone], the “LD50 Acute Oral Toxicity” value in data set [1] is 25,000 mg/Kg. Moreover, the “water solubility” value in data set [2] is recorded as “does not dissolve in water”. The “LD50 Human Skin Dark” value with Human Skin (dark) was “No Effect”. Moreover, the “LD50 Human Skin Irradiated” value with Human Skin (irradiated) is listed as 18,779 mg/Kg.

In general, LD50 refers to the dose at which mortality reaches 50%. As to `Cc1cc2nc3c(=O)[nH]c(=O)nc-3n(C[C@H](O)[C@H](O)[C@H](O)CO)c2cc1C` [Riboflavin, 7,8-dimethyl-10-ribityl-isoalloxazine], in the data set with E. coli, the LD50 was determined as 85 mg/kg. Further, the water solubility in data set [2] was 100 µg/mL (≈ 266 µM). The “DNA binding constant Kb” value in the data set with DNA was > 10^4 M^−1. In the data set “Water solubility”, the “concentration showing precipitation in water” value turned out to be 250 μm. For the same compound, the “Production of singlet oxygen” value in data set [3] was “capable of producing a large quantity of singlet oxygen”. Also, the “Photocleavage of plasmid DNA from Form I (supercoiled) to Form II (nicked)” value in the data set on plasmid DNA is “can cleave DNA”.

The values above are taken from patent US20130245598A1, “PHOTOACTIVE VITAMIN NANOPARTICLES FOR THE TREATMENT OF CHRONIC WOUNDS” (priority 2010, published 2013).
